Values of other authors as cited in patent publication US20080234352A1, “Controlled release solid dispersions” (EGALET A/S, priority 2001, published 2008).
Read-outs that look alike come from different tables or passages of the source.

What was measured:
[1] = not given; remark: listed apart in the source

O=C(O)c1cc(C(=O)O)cc(C(=O)O)c1 [Benzene-1,3,5-tricarboxylic (trimesic)]
pKa (pKa1): 3.16 | pKa (pKa2): 3.98 | pKa (pKa3): 4.85

O=C(O)CC(C(=O)O)C(CC(=O)O)C(=O)O (stereo not drawn) [Butane-1,2,3,4-tetracarboxylic]
pKa (pKa2): 4.38 | pKa (pKa3): 5.45 | pKa (pKa4): 6.63

O=S(=O)(O)CCCN1CCN(CCO)CC1 [EPPS, 4-(2-Hydroxyethyl)-I-piperazinepropane sulfonic acid]
pKa (no step given): 8.00

O=C(O)CC1(CC(=O)O)CCCC1 [I,I-Cyclopentanediacetic, I,I-Cyclopentanediacetic (3,3 tetramethylene glutaric acid)]
pKa (pKa1): 3.82 | pKa (pKa2): 6.70

O=C(O)c1cc(C(=O)O)c(C(=O)O)c(C(=O)O)c1C(=O)O [Benzenepentacarboxylic]
pKa (pKa2): 2.95 | pKa (pKa3): 3.94 | pKa (pKa4): 5.07 | pKa (pKa5): 6.25

O=C(O)c1cc(C(=O)O)c(C(=O)O)cc1C(=O)O [Benzene-1,2,4,5-tetracarboxylic (pyromellitic)]
pKa (pKa1): 2.43 | pKa (pKa2): 3.13 | pKa (pKa3): 4.44 | pKa (pKa4): 5.61

CC(CC(=O)O)(CC(=O)O)C(=O)O [2-Methylpropane-1,2,3-triscarboxylic]
pKa (pKa2): 5.02 | pKa (pKa3): 7.20

C=C(CC(=O)O)C(=O)O [Itaconic]
pKa (pKa1): 3.84 | pKa (pKa2): 5.55

O=C(O)c1cccc(C(=O)O)c1C(=O)O [Benzene-1,2,3-tricarboxylic (hemimellitic)]
pKa (pKa1): 2.98 | pKa (pKa2): 4.25 | pKa (pKa3): 5.87

O=C(O)C(O)c1ccccc1 (stereo not drawn) [Mandelic]
pKa (no step given): 3.36

O=C(O)c1ccccc1C(=O)O [Phthalic]
pKa (no step given): 2.90

O=S(=O)(O)CCCNC(CO)(CO)CO [TAPS, N-Tris(hydroxymethyl)methyl-2-aminopropane suifonic acid]
pKa (pKa2): 8.40

COc1ccccc1OCCNCC(O)COc1cccc2[nH]c3ccccc3c12 (racemic) [Carvedilol]
alpha-mediated vasodilatory effects (decreased peripheral resistance and blood pressure) evident within ([1]; administration of an IR formulation): ≤ 30 min | binding to plasma ([1]; in vivo): highly bound | dose excreted unchanged in the urine ([1]; in vivo): less than 2% | dose linearity range ([1]; literature): 6.25 to 50 mg | time to peak plasma concentrations ([1]; oral administration): one to two | absorption in the large intestine, share of the total absorption ([1]; timed-release capsules, study by Nolte et al): approximately 10%

O=C(O)CC(O)C(=O)O (stereo not drawn) [Malic]
pKa (pKa1): 3.40 | pKa (pKa2): 5.05

O=S(=O)(O)CCN1CCN(CCS(=O)(=O)O)CC1 [PIPES, 1,4-Piperazinebis-(ethanesulfonic acid)]
pKa (pKa3): 3.00 | pKa (pKa4): 6.8

COc1cc2c(cc1OC)[C@@]13CCN4CC5=CCO[C@H]6CC(=O)N2[C@H]1[C@H]6[C@H]5C[C@H]43.O.O.O.O [Brucine tetrahydrate]
pKa (pKa1): 2.30 | pKa (pKa2): 7.95

CN(C)C [Trimethylamine]
pKa (no step given): 9.74

O=S(=O)(O)CCCNC1CCCCC1 [CAPS, 3-Cyclohexylamino-I-propanesulfonic acid]
pKa (pKa2): 10.40

CN [Methylamine]
pKa (no step given): 10.64
